Laboratory results reported in ChEMBL document CHEMBL1132812, “Novel phosphinic and phosphonic acid analogues of the anticonvulsant valproic acid” (Bioorg Med Chem Lett, 2000).
Activity calls are given as the source filed them. No cut-off for these calls is given here.

Key:
Rattus norvegicus [1] = species: Rattus norvegicus; experiment: Compound was evaluated for the anticonvulsant activity in amygdala kindled rats; Inactive; assay type: functional, organism-based
Rattus norvegicus [2] = species: Rattus norvegicus; experiment: Compound was evaluated for the anticonvulsant activity in amygdala kindled rats; Active; assay type: functional, organism-based
[3] = target: T1, Succinate-semialdehyde dehydrogenase, mitochondrial (Homo sapiens) (UniProt P51649); experiment: Compound was tested for the inhibition of succinic semialdehyde dehydrogenase; Active
T1 sequence (whole entry): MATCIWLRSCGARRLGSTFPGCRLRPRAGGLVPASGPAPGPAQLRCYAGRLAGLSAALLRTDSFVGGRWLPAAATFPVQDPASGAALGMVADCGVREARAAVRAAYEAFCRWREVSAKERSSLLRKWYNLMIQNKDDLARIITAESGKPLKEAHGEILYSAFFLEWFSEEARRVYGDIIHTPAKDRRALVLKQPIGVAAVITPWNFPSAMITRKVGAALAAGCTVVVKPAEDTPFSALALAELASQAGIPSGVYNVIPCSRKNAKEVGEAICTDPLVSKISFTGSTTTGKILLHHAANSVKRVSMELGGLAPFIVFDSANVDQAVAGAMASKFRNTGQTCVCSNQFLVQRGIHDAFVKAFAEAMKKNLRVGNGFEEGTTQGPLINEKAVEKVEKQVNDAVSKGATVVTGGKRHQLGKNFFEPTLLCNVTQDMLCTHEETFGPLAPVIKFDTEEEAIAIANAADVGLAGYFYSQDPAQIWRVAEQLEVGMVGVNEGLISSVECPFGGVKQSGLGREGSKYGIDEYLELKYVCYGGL

[4] = target: 4-aminobutyrate aminotransferase, mitochondrial (Homo sapiens) (UniProt P80404); experiment: Compound was tested for the inhibition of Gamma-amino-N-butyrate transaminase; Active
Chain of 4-aminobutyrate aminotransferase, mitochondrial (Homo sapiens) (P80404 whole entry): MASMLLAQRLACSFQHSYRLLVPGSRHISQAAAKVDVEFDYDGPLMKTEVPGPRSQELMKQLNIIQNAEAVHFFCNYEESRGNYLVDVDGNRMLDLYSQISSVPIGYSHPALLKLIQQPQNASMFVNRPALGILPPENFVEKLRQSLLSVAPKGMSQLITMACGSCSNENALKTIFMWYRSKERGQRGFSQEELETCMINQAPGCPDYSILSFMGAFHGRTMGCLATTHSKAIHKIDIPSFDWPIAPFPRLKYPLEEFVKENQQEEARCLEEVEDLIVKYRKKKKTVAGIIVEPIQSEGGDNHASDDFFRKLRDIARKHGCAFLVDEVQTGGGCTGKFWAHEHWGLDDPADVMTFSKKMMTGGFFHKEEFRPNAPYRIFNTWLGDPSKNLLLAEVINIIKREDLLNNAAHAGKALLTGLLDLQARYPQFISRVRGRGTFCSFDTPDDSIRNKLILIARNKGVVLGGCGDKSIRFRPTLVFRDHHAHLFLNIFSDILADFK

| Activity [3] | Activity [4] | SMILES | Activity (Rattus norvegicus [1]) | Activity (Rattus norvegicus [2]) |
| --- | --- | --- | --- | --- |
|  |  | CCCC(CCC)P(=O)(O)O | inactive |  |
|  |  | CCCC(CCC)P(C)(=O)O | inactive |  |
| Active | Active | CCCC(CCC)C(=O)O |  | Active |
|  |  | CCCC(CCC)[PH](=O)O | inactive |  |
